# According to patent publication US12599136B2, “Substituted isophthalic acid diamides and their use as herbicides” (Bayer Aktiengesellschaft, priority 2020, dated 2026):
# How the values were obtained:
# Assay type in all cases: in vivo
# Amaranthus retroflexus [1] = test: Post-emergence herbicidal action against AMARE; conditions: visual assessment about 3 weeks after treatment
# In short: (§1)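 A WP or EC formulation diluted in water with 0.2% wetting agent was sprayed at 600 to 800 l/ha onto one-leaf-stage plants grown in sandy loam. About 3 weeks later, action was rated visually in percent, 100% being dead plants.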
# Viola tricolor [2] = test: Post-emergence herbicidal action against VIOTR
# In short: as §1
# Matricaria inodora [3] = test: Pre-emergence herbicidal action against MATIN; conditions: visual score after 3 weeks vs untreated controls
# In short: (§2)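 Greenhouse pots of sandy loam held seeds covered with soil, onto which the compound was applied before emergence. An aqueous suspension or emulsion of WP or EC was used at 600 to 800 l/ha with 0.2% wetting agent. Percent damage was judged visually at 3 weeks.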
# Echinochloa crus-galli [4] = test: Pre-emergence herbicidal action against ECHCG; conditions: for Pre-emergence action against ECHCG: 80 g/ha, visual score after 3 weeks vs untreated controls; for Herbicidal action against ECHCG: comparative experiment, pre-emergence
# In short: as §2
# Abutilon theophrasti [5] = test: Post-emergence herbicidal action against ABUTH
# In short: as §1
# Alopecurus myosuroides [6] = test: Pre-emergence herbicidal action against ALOMY; conditions: for Pre-emergence action against ALOMY: visual score after 3 weeks vs untreated controls; for Herbicidal action against ALOMY: comparative experiment, pre-emergence
# In short: as §2
# Matricaria inodora [7] = test: Post-emergence herbicidal action against MATIN; conditions: for Post-emergence action against MATIN in %: visual assessment about 3 weeks after treatment
# In short: as §1
# Abutilon theophrasti [8] = test: Pre-emergence herbicidal action against ABUTH; conditions: for Pre-emergence action against ABUTH: visual score after 3 weeks vs untreated controls; for Herbicidal action against ABUTH: comparative experiment, pre-emergence
# In short: as §2
# Pharbitis purpurea [9] = test: Pre-emergence herbicidal action against PHBPU; conditions: 80 g/ha; visual score after 3 weeks vs untreated controls
# From the text: Seeds of monocotyledonous and dicotyledonous weed plants and crop plants are laid out in sandy loam soil in wood-fiber pots and covered with soil. The compounds of the invention, formulated in the form of wettable powders (WP) or as emulsion concentrates (EC), are then applied to the surface of the covering soil in the form of an aqueous suspension or emulsion at a water application rate equivalent to 600 to 800 l/ha, with addition of 0.2% wetting agent. After the treatment, the pots are placed in a greenhouse and kept under good growth conditions for the trial plants. The damage to the test plants is scored visually after a test period of 3 weeks by comparison with untreated controls (herbicidal activity in percent (%): 100% activity=the plants have died, 0% activity=like control plants). […] The tables below illustrate, in an illustrative manner, the post-emergence herbicidal action of the compounds of the invention, the herbicidal activity being stated in percent.
# Veronica persica [10] = test: Post-emergence herbicidal action against VERPE; conditions: 20 g/ha, visual assessment about 3 weeks after treatment
# In short: as §1
# Alopecurus myosuroides [11] = test: Post-emergence herbicidal action against ALOMY
# In short: as §1
# Digitaria sanguinalis [12] = test: Pre-emergence herbicidal action against DIGSA
# In short: as §2
# Setaria viridis [13] = test: Pre-emergence herbicidal action against SETVI; conditions: for Herbicidal action against SETVI: comparative experiment
# In short: as §2
# Echinochloa crus-galli [14] = test: Post-emergence herbicidal action against ECHCG; conditions: visual assessment about 3 weeks after treatment
# In short: as §1
# Pharbitis purpurea [15] = test: Post-emergence herbicidal action against PHBPU; conditions: for Post-emergence action against PHBPU in %: visual assessment about 3 weeks after treatment
# In short: as §1
# Setaria viridis [16] = test: Post-emergence herbicidal action against SETVI; conditions: for Post-emergence action against SETVI in %: visual assessment about 3 weeks after treatment
# In short: as §1
# Amaranthus retroflexus [17] = test: Pre-emergence herbicidal action against AMARE; conditions: visual score after 3 weeks vs untreated controls
# In short: as §2
# Polygonum convolvulus = test: Pre-emergence herbicidal action against POLCO; conditions: 80 g/ha
# In short: as §2
# Viola tricolor [18] = test: Pre-emergence herbicidal action against VIOTR
# In short: as §2
# Veronica persica [19] = test: Pre-emergence herbicidal action against VERPE; conditions: 80 g/ha
# In short: as §2
# Digitaria sanguinalis [20] = test: Post-emergence herbicidal action against DIGSA
# In short: as §1
# Avena fatua = test: Pre-emergence herbicidal action against AVEFA; conditions: for Pre-emergence action against AVEFA: visual score after 3 weeks vs untreated controls; for Herbicidal action against AVEFA: comparative experiment, pre-emergence
# In short: as §2
# Lolium rigidum = test: Pre-emergence herbicidal action against LOLRI; conditions: 80 g/ha
# In short: as §2
# [21] = comparative experiment, 5 g a.i./ha
smiles,measurement,setting,value
CCN(C(=O)c1c(C(F)(F)F)ccc(C(=O)Nc2nnnn2C)c1Cl)C1CC1 [Example 1-136],Post-emergence action against AMARE in %,Amaranthus retroflexus [1]; 5 g/ha,100%
same,Post-emergence action against AMARE in %,Amaranthus retroflexus [1]; 20 g/ha,100%
same,Post-emergence action against VIOTR in %,Viola tricolor [2]; 5 g/ha,100%
same,Post-emergence action against VIOTR in %,Viola tricolor [2]; 20 g/ha,100%
same,Pre-emergence action against MATIN,Matricaria inodora [3]; 20 g/ha,90%
same,Pre-emergence action against MATIN,Matricaria inodora [3]; 80 g/ha,100%
same,Pre-emergence action against ECHCG,Echinochloa crus-galli [4],90%
same,Post-emergence action against ABUTH,Abutilon theophrasti [5]; 5 g/ha,90%
same,Post-emergence action against ABUTH,Abutilon theophrasti [5]; 20 g/ha,100%
same,Pre-emergence action against ALOMY,Alopecurus myosuroides [6]; 80 g/ha,100%
same,Post-emergence action against MATIN in %,Matricaria inodora [7]; 20 g/ha,90%
same,Pre-emergence action against ABUTH,Abutilon theophrasti [8]; 20 g/ha,90%
same,Pre-emergence action against ABUTH,Abutilon theophrasti [8]; 80 g/ha,100%
same,Pre-emergence action against PHBPU,Pharbitis purpurea [9],90%
same,Post-emergence action against VERPE in %,Veronica persica [10],80%
same,Post-emergence action against ALOMY,Alopecurus myosuroides [11]; 5 g/ha,80%
same,Post-emergence action against ALOMY,Alopecurus myosuroides [11]; 20 g/ha,90%
same,Pre-emergence action against DIGSA,Digitaria sanguinalis [12]; 20 g/ha,90%
same,Pre-emergence action against DIGSA,Digitaria sanguinalis [12]; 80 g/ha,100%
same,Pre-emergence action against SETVI,Setaria viridis [13]; 20 g/ha,90%
same,Pre-emergence action against SETVI,Setaria viridis [13]; 80 g/ha,100%
same,Post-emergence action against ECHCG in %,Echinochloa crus-galli [14]; 20 g/ha,90%
same,Post-emergence action against PHBPU in %,Pharbitis purpurea [15]; 20 g/ha,80%
same,Post-emergence action against SETVI in %,Setaria viridis [16]; 20 g/ha,100%
same,Pre-emergence action against AMARE,Amaranthus retroflexus [17]; 20 g/ha,90%
same,Pre-emergence action against AMARE,Amaranthus retroflexus [17]; 80 g/ha,100%
same,Pre-emergence action against POLCO,Polygonum convolvulus,80%
same,Pre-emergence action against VIOTR,Viola tricolor [18]; 20 g/ha,100%
same,Pre-emergence action against VIOTR,Viola tricolor [18]; 80 g/ha,100%
CN(C)C(=O)c1c(C(F)F)ccc(C(=O)Nc2nnnn2C)c1Cl [Example 1-154],Post-emergence action against AMARE in %,Amaranthus retroflexus [1]; 5 g/ha,90%
same,Post-emergence action against AMARE in %,Amaranthus retroflexus [1]; 20 g/ha,100%
same,Post-emergence action against VIOTR in %,Viola tricolor [2]; 5 g/ha,100%
same,Post-emergence action against VIOTR in %,Viola tricolor [2]; 20 g/ha,100%
same,Herbicidal action against VIOTR,Viola tricolor [2]; [21],100
same,Pre-emergence action against VERPE,Veronica persica [19],80%
same,Pre-emergence action against MATIN,Matricaria inodora [3]; 20 g/ha,80%
same,Pre-emergence action against MATIN,Matricaria inodora [3]; 80 g/ha,90%
same,Pre-emergence action against ECHCG,Echinochloa crus-galli [4],100%
same,Herbicidal action against ECHCG,Echinochloa crus-galli [4]; 20 g a.i./ha,80
same,Herbicidal action against ECHCG,Echinochloa crus-galli [4]; 80 g a.i./ha,100
same,Post-emergence action against ABUTH,Abutilon theophrasti [5]; 5 g/ha,100%
same,Post-emergence action against ABUTH,Abutilon theophrasti [5]; 20 g/ha,100%
same,Herbicidal action against ABUTH,Abutilon theophrasti [5]; [21],100
same,Pre-emergence action against ALOMY,Alopecurus myosuroides [6]; 20 g/ha,90%
same,Pre-emergence action against ALOMY,Alopecurus myosuroides [6]; 80 g/ha,100%
same,Herbicidal action against ALOMY,Alopecurus myosuroides [6]; 20 g a.i./ha,70
same,Herbicidal action against ALOMY,Alopecurus myosuroides [6]; 80 g a.i./ha,100
same,Post-emergence action against MATIN in %,Matricaria inodora [7]; 5 g/ha,80%
same,Post-emergence action against MATIN in %,Matricaria inodora [7]; 20 g/ha,90%
same,Herbicidal action against MATIN,Matricaria inodora [7]; [21],80
same,Post-emergence action against DIGSA in %,Digitaria sanguinalis [20]; 5 g/ha,90%
same,Post-emergence action against DIGSA in %,Digitaria sanguinalis [20]; 20 g/ha,90%
same,Pre-emergence action against ABUTH,Abutilon theophrasti [8]; 80 g/ha,100%
same,Herbicidal action against ABUTH,Abutilon theophrasti [8]; 20 g a.i./ha,100
same,Herbicidal action against ABUTH,Abutilon theophrasti [8]; 80 g a.i./ha,100
same,Pre-emergence action against AVEFA,Avena fatua; 20 g/ha,80%
same,Pre-emergence action against AVEFA,Avena fatua; 80 g/ha,100%
same,Herbicidal action against AVEFA,Avena fatua; 20 g a.i./ha,50
same,Herbicidal action against AVEFA,Avena fatua; 80 g a.i./ha,100
same,Post-emergence action against ALOMY,Alopecurus myosuroides [11]; 5 g/ha,90%
same,Post-emergence action against ALOMY,Alopecurus myosuroides [11]; 20 g/ha,100%
same,Herbicidal action against ALOMY,Alopecurus myosuroides [11]; [21],90
same,Pre-emergence action against DIGSA,Digitaria sanguinalis [12]; 20 g/ha,100%
same,Pre-emergence action against DIGSA,Digitaria sanguinalis [12]; 80 g/ha,100%
same,Pre-emergence action against SETVI,Setaria viridis [13]; 80 g/ha,100%
same,Herbicidal action against SETVI,Setaria viridis [13]; 20 g a.i./ha,90
same,Herbicidal action against SETVI,Setaria viridis [13]; 80 g a.i./ha,100
same,Post-emergence action against ECHCG in %,Echinochloa crus-galli [14]; 5 g/ha,90%
same,Post-emergence action against ECHCG in %,Echinochloa crus-galli [14]; 20 g/ha,90%
same,Post-emergence action against PHBPU in %,Pharbitis purpurea [15]; 5 g/ha,80%
same,Post-emergence action against PHBPU in %,Pharbitis purpurea [15]; 20 g/ha,90%
same,Herbicidal action against PHBPU,Pharbitis purpurea [15]; [21],80
same,Pre-emergence action against LOLRI,Lolium rigidum,90%
same,Post-emergence action against SETVI in %,Setaria viridis [16]; 5 g/ha,100%
same,Post-emergence action against SETVI in %,Setaria viridis [16]; 20 g/ha,100%
same,Herbicidal action against SETVI,Setaria viridis [16]; [21],100
same,Pre-emergence action against AMARE,Amaranthus retroflexus [17]; 20 g/ha,90%
same,Pre-emergence action against AMARE,Amaranthus retroflexus [17]; 80 g/ha,100%
same,Pre-emergence action against POLCO,Polygonum convolvulus,80%
same,Pre-emergence action against VIOTR,Viola tricolor [18]; 80 g/ha,100%
same,Herbicidal action against VIOTR,"Viola tricolor [18]; comparative experiment, 80 g a.i./ha",100
